# Assays:
# barnyardgrass = test: Test C postemergence barnyardgrass; format: in vivo, Echinochloa crus-galli; conditions: 0 to 100 scale, 0 no effect, 100 complete control
# Procedure, shortened: (§1)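 Activity is expressed as percent-style visual control, 0 (no effect) to 100 (complete control), assessed approximately 14 to 21 days after application, relative to untreated plants. Application was postemergence, using a non-phytotoxic solvent formulation with surfactant.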
# common ragweed = test: Test C postemergence common ragweed; format: in vivo, Ambrosia elatior; conditions: 0 to 100 scale, 0 no effect, 100 complete control
# Procedure, shortened: as §1
# cotton = test: Test C postemergence cotton; format: in vivo, Gossypium hirsutum; conditions: 0 to 100 scale, 0 no effect, 100 complete control
# Procedure, shortened: as §1
# fall panicum = test: Test C postemergence fall panicum; format: in vivo, Panicum dichotomiflorum; conditions: 0 to 100 scale, 0 no effect, 100 complete control
# Procedure, shortened: as §1
# ivyleaf morningglory = test: Test C postemergence ivyleaf morningglory; format: in vivo, Ipomoea hederacea; conditions: 0 to 100 scale, 0 no effect, 100 complete control
# Procedure, shortened: as §1
# redroot pigweed = test: Test C postemergence redroot pigweed; format: in vivo, Amaranthus retroflexus; conditions: 0 to 100 scale, 0 no effect, 100 complete control
# Procedure, shortened: as §1
# annual bluegrass = test: Test E annual bluegrass; format: in vivo, Poa annua; conditions: Postemergence; for Plant response rating, Annual bluegras: 0 to 100 scale
# Procedure, shortened: (§2)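 Postemergence: 60:40 sandy loam/greenhouse potting mix, 1- to 4-leaf stage. Formulation: solvent plus surfactant. Assessment: visual comparison with untreated controls at ~21–28 days.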
# common poppy = test: Test E common poppy; format: in vivo, Papaver rhoeas; conditions: Postemergence
# Procedure, shortened: as §2
# deadnettle = test: Test E deadnettle; format: in vivo, Lamium amplexicaule; conditions: Postemergence; for Plant response rating, Deadnettle: 0 to 100 scale
# Procedure, shortened: as §2
# green foxtail = test: Test E green foxtail; format: in vivo, Setaria viridis; conditions: Postemergence; for Plant response rating, Green foxtail: 0 to 100 scale
# Procedure, shortened: as §2
# littleseed canarygrass = test: Test E littleseed canarygrass; format: in vivo, Phalaris minor; conditions: Postemergence; for Plant response rating, LS canarygrass: 0 to 100 scale
# Procedure, shortened: as §2
# scentless chamomile = test: Test E scentless chamomile; format: in vivo, Matricaria inodora; conditions: Postemergence; for Plant response rating, Scentless chamo: 0 to 100 scale
# Procedure, shortened: as §2
# wild mustard = test: Test E wild mustard; format: in vivo, Sinapis arvensis; conditions: Postemergence; for Plant response rating, Wild mustard: 0 to 100 scale
# Procedure, shortened: as §2
# downy brome = test: Test E downy brome; format: in vivo, Bromus tectorum; conditions: Preemergence
# lambsquarters = test: Test E lambsquarters; format: in vivo, Chenopodium album; conditions: Preemergence
# wild buckwheat = test: Test E wild buckwheat; format: in vivo, Polygonum convolvulus; conditions: Preemergence
# windgrass = test: Test E windgrass; format: in vivo, Apera spica-venti; conditions: Preemergence
# [1] = Rate 500 g/ha, 0 no effect, 100 complete control
# [2] = Rate 250 g/ha, 0 to 100 scale where 0 is no effect and 100 is complete control
# [3] = Rate 125 g/ha, 0 to 100 scale (0 no effect, 100 complete control)
# [4] = Rate 500 g/ha, 0 to 100 scale where 0 is no effect and 100 is complete control
smiles,measurement,setting,value
CC(C)N(C(=O)n1oc(=O)n(C(C)C)c1=O)c1ccc(F)cc1 [Compound 131],"Plant response rating, Barnyardgrass",barnyardgrass; Rate 140 g/ha,70
same,"Plant response rating, Barnyardgrass",barnyardgrass; Rate 280 g/ha,70
same,"Plant response rating, Barnyardgrass",barnyardgrass; Rate 560 g/ha,95
same,"Plant response rating, Barnyardgrass",barnyardgrass; Rate 1120 g/ha,95
same,Plant response rating Common ragweed,common ragweed; Rate 140 g/ha,0
same,Plant response rating Common ragweed,common ragweed; Rate 280 g/ha,0
same,Plant response rating Common ragweed,common ragweed; Rate 560 g/ha,0
same,Plant response rating Common ragweed,common ragweed; Rate 1120 g/ha,0
same,Plant response rating Cotton,cotton; Rate 140 g/ha,10
same,Plant response rating Cotton,cotton; Rate 280 g/ha,10
same,Plant response rating Cotton,cotton; Rate 560 g/ha,40
same,Plant response rating Cotton,cotton; Rate 1120 g/ha,65
same,Plant response rating Fall panicum,fall panicum; Rate 140 g/ha,0
same,Plant response rating Fall panicum,fall panicum; Rate 280 g/ha,40
same,Plant response rating Fall panicum,fall panicum; Rate 560 g/ha,90
same,Plant response rating Fall panicum,fall panicum; Rate 1120 g/ha,90
same,Plant response rating I. morningglory,ivyleaf morningglory; Rate 140 g/ha,0
same,Plant response rating I. morningglory,ivyleaf morningglory; Rate 280 g/ha,0
same,Plant response rating I. morningglory,ivyleaf morningglory; Rate 560 g/ha,20
same,Plant response rating I. morningglory,ivyleaf morningglory; Rate 1120 g/ha,50
same,"Plant response rating, Redroot pigweed",redroot pigweed; Rate 140 g/ha,10
same,"Plant response rating, Redroot pigweed",redroot pigweed; Rate 280 g/ha,10
same,"Plant response rating, Redroot pigweed",redroot pigweed; Rate 560 g/ha,20
same,"Plant response rating, Redroot pigweed",redroot pigweed; Rate 1120 g/ha,30
same,"Plant response rating, Annual bluegras",annual bluegrass; Rate 62 g/ha,55
same,"Plant response rating, Annual bluegras",annual bluegrass; Rate 125 g/ha,40
same,"Plant response rating, Annual bluegras",annual bluegrass; [1],70
same,Annual bluegras plant response rating,annual bluegrass; [2],40
same,"Plant response rating, Common poppy","common poppy; Rate 62 g/ha, 0 to 100 scale",65
same,"Plant response rating, Comnion poppy","common poppy; Rate 125 g/ha, 0 to 100 scale",0
same,"Plant response rating, Common poppy","common poppy; Rate 500 g/ha, 0 to 100 scale, 0 no effect, 100 complete control",0
same,Common poppy plant response rating,common poppy; [2],0
same,"Plant response rating, Deadnettle",deadnettle; Rate 62 g/ha,30
same,"Plant response rating, Deadnettle",deadnettle; Rate 125 g/ha,30
same,"Plant response rating, Deadnettle",deadnettle; [1],50
same,Deadnettle plant response rating,deadnettle; [2],30
same,"Plant response rating, Green foxtail",green foxtail; Rate 62 g/ha,55
same,"Plant response rating, Green foxtail",green foxtail; Rate 125 g/ha,70
same,"Plant response rating, Green foxtail",green foxtail; [1],75
same,Green foxtail plant response rating,green foxtail; [2],50
same,"Plant response rating, LS canarygrass",littleseed canarygrass; Rate 62 g/ha,50
same,"Plant response rating, LS canarygrass",littleseed canarygrass; Rate 125 g/ha,0
same,"Plant response rating, LS canarygrass",littleseed canarygrass; [1],50
same,LS canarygrass plant response rating,littleseed canarygrass; [2],20
same,"Plant response rating, Scentless chamo",scentless chamomile; Rate 62 g/ha,55
same,"Plant response rating, Scentless chamo",scentless chamomile; Rate 125 g/ha,0
same,"Plant response rating, Scentless chamo",scentless chamomile; [1],50
same,Scentless chamo plant response rating,scentless chamomile; [2],20
same,"Plant response rating, Wild mustard",wild mustard; Rate 62 g/ha,30
same,"Plant response rating, Wild mustard",wild mustard; Rate 125 g/ha,0
same,"Plant response rating, Wild mustard",wild mustard; [1],30
same,Wild mustard plant response rating,wild mustard; [2],0
same,"Plant response rating, Downy brome",downy brome; [3],85
same,Downy brome plant response rating (0 to 100 scale),downy brome; Rate 250 g/ha,80
same,"Plant response rating, Downy brome",downy brome; [4],100
same,"Plant response rating, Lambsquarters",lambsquarters; [3],100
same,Lambsquarters plant response rating (0 to 100 scale),lambsquarters; Rate 250 g/ha,100
same,"Plant response rating, Lambsquarters",lambsquarters; [4],100
same,"Plant response rating, Wild buckwheat",wild buckwheat; [3],30
same,Wild buckwheat plant response rating (0 to 100 scale),wild buckwheat; Rate 250 g/ha,70
same,"Plant response rating, Wild buckwheat",wild buckwheat; [4],100
same,"Plant response rating, Windgrass",windgrass; [3],100
same,Windgrass plant response rating (0 to 100 scale),windgrass; Rate 250 g/ha,100
same,"Plant response rating, Windgrass",windgrass; [4],100
